Reference: ChEMBL document CHEMBL4196011, “The lead optimization of the polyamine conjugate of flavonoid with a naphthalene motif: Synthesis and biological evaluation” (Eur J Med Chem, 2018)

How the values were obtained:
K562 = assay: Antiproliferative activity against human K562 cells after 48 hrs by MTT assay; format: functional, cell-based; conditions: K562, 48 h
HeLa = assay: Antiproliferative activity against human HeLa cells after 48 hrs by MTT assay; format: functional, cell-based
HCT-116 = assay: Antiproliferative activity against human HCT116 cells after 48 hrs by MTT assay; format: functional, cell-based; conditions: HCT-116, 48 h
HepG2 = assay: Antiproliferative activity against human HepG2 cells after 48 hrs by MTT assay; format: functional, cell-based; conditions: HepG2, 48 h
HT-29 = assay: Antiproliferative activity against human HT-29 cells after 48 hrs by MTT assay; format: functional, cell-based; conditions: HT-29, 48 h
Mus musculus [1] = assay: Toxicity in Kunming mouse xenografted with […] H22 cells assessed as effect on heart weight index at 100 mg/kg, ig administered for 7 consecutive days; format: organism-based; conditions: in vivo, po
Mus musculus [2] = assay: Toxicity in Kunming mouse xenografted with […] H22 cells assessed as effect on liver weight index at 100 mg/kg, ig administered for 7 consecutive days; format: organism-based; conditions: in vivo, po
Mus musculus [3] = assay: Toxicity in Kunming mouse xenografted with […] H22 cells assessed as effect on lung weight index at 100 mg/kg, ig administered for 7 consecutive days; format: organism-based; conditions: in vivo, po
Mus musculus [4] = assay: Toxicity in Kunming mouse xenografted with […] H22 cells assessed as effect on spleen weight index at 100 mg/kg, ig administered for 7 consecutive days; format: organism-based; conditions: in vivo, po
Mus musculus [5] = assay: Toxicity in Kunming mouse xenografted with […] H22 cells assessed as effect on body weight at 100 mg/kg, ig administered for 7 consecutive days; format: organism-based; conditions: in vivo, po
H22 [6] = assay: Antitumor activity against […] xenografted in Kunming mouse assessed as tumor growth inhibition at 100 mg/kg, ig for 7 consecutive days measured on day 16; format: functional; conditions: H22, po, 384 h, read-out: TGI
Mus musculus [7] = assay: Toxicity in Kunming mouse xenografted with […] H22 cells assessed as effect on kidney weight index at 100 mg/kg, ig administered for 7 consecutive days; format: organism-based; conditions: in vivo, po
H22 [8] = assay: Antitumor activity against […] xenografted in Kunming mouse assessed as tumor growth inhibition at 10 mg/kg, iv for 7 consecutive days measured on day 16; format: functional; conditions: 384 h, read-out: TGI
[9] = Toxicity in iv dosed Kunming mouse assessed as maximum tolerated dose administered for 7 consecutive days; format: organism-based; conditions: in vivo
[10] = Toxicity in Kunming mouse assessed as maximum tolerated dose administered for 7 consecutive days; format: organism-based; conditions: in vivo

Structure (SMILES) | IC50 (K562) [µM] | IC50 (HeLa) [µM] | IC50 (HCT-116) [µM] | IC50 (HepG2) [µM] | IC50 (HT-29) [µM] | further results
COc1ccc2cc(-c3oc4c(CNCCCCNCCCCN)cccc4c(=O)c3OC)ccc2c1Br | 18.5 | 9.63 | 19.3 | 14.3 | 21.8 | –
O=C1c2c(O)ccc(O)c2C(=O)c2c(NCCNCCO)ccc(NCCNCCO)c21 [MITOXANTRONE] | 4.55 | 2.35 | 1.61 | 18.6 | 21.7 | –
O=c1c(O)c(-c2ccc(O)c(O)c2)oc2cc(O)cc(O)c12 [QUERCETIN] | – | – | – | – | – | Activity (Mus musculus [1]): Non-Toxic; Activity (Mus musculus [2]): Non-Toxic; Activity (Mus musculus [3]): Non-Toxic; Activity (Mus musculus [4]): Non-Toxic; Activity (Mus musculus [5]): Non-Toxic; inhibition in vivo at 100 mg/kg (H22 [6]): 34.3 to 38.7%; Activity (Mus musculus [7]): Non-Toxic
NCCCNCc1c(-c2ccc(-c3ccccc3)cc2)oc2ccccc2c1=O | 41.6 | 20.5 | 23.4 | > 50 | 24.7 | –
COc1c(-c2ccc(-c3ccccc3)cc2)oc2c(CNCCCNCCCCN)cccc2c1=O | 15.8 | 13.9 | 14.8 | 22.2 | 31.4 | –
COc1c(-c2ccc(-c3ccccc3)cc2)oc2c(CNCCN)cccc2c1=O | 25.9 | 18.7 | 24.1 | 19.9 | 18.9 | –
COc1ccc2cc(-c3oc4c(CNCCCN)cccc4c(=O)c3OC)ccc2c1Br | 19.2 | 11.2 | 12.8 | 15.1 | 23.1 | –
COc1c(-c2ccc(-c3ccccc3)cc2)oc2c(CNCCCN)cccc2c1=O.Cl.Cl | 9.3 | 7.8 | 5.1 | 10.4 | 8.25 | inhibition in vivo at 10 mg/kg (H22 [8]): 31.5%; MTD at 7 days [9]: 15 mg/kg
COc1c(-c2ccc(-c3ccccc3)cc2)oc2c(CNCCCCN)cccc2c1=O | 24.4 | 10.3 | 16.4 | 16.2 | 16.1 | –
COc1c(-c2ccc(-c3ccccc3)cc2)oc2c(CNCCCCNCCCCN)cccc2c1=O | 19.8 | 18.6 | 20.1 | 24.4 | 25.6 | –
Cl.Cl.NCCCNCC(=O)NCc1cccc2c(=O)cc(-c3cccc4ccccc34)oc12 | – | – | – | – | – | MTD at 7 days [10]: 20 mg/kg
